Earlier results on one compound are cited in PMC6972991 (Chemistry (Weinheim an Der Bergstrasse, Germany), 2019).

Take `O=S(=O)(O)c1ccccc1` [benzenesulfonic acid]: the pKa result was “≈ 4”.
